From patent US20140323307A1, “MANAGEMENT METHOD AND MANAGEMENT SYSTEM FOR BIOMASS AT PLANT HARVEST” (Japan Science and Technology Agency, priority 2011, published 2014)

System: Arabidopsis thaliana
Settings: linolenic acid-deficient, linolenic acid-excess and wild-type strains; 2 mM GSH or 1 mM GSSG aqueous solution, 25 mL per three individuals, once a week for 5 weeks; FIG. 9
Protocol: Each strain of Arabidopsis thaliana tested here was grown in the following manner: seeds of three individuals of each strain of Arabidopsis thaliana were sown in a pot, and grown from when the seeds were sown to when the individuals bore seeds (grown for about 2.5 to 3 months) under the controlled condition where light intensity was approximately 100 μE·m^−2·S^−1, the light and dark cycle was set to 16 hours and 8 hours, and the temperature was 22° C. […] Above-ground parts of the obtained Arabidopsis thaliana were harvested, and dried for five or more days in a dry house having a humidity of 5% and a temperature of 20° C. After they were thoroughly dried, the total biomass of above-ground parts at harvest (dry weight of the entire above-ground parts) and seed yield (dry weight of harvested seeds) for each pot were measured. As for the linolenic acid-deficient strain (triple mutant), only the total biomass of above-ground parts at harvest was measured.

## N[C@@H](CCC(=O)N[C@@H](CS)C(=O)NCC(=O)O)C(=O)O [glutathione]
  biomass at harvest (total biomass of above-ground parts, dry weight; seed yield) compared to the controls: significantly increased in biomass
